Measurements taken from patent US20250049741A1, “COMPOSITION FOR PREVENTING OR TREATING ALZHEIMER'S DISEASE COMPRISING PHOSPHOLIPASE C ACTIVATOR AS AN ACTIVE INGREDIENT” (Korea University Research and Business Foundation, priority 2021, published 2025).

Key:
[1] = tested on: hippocampal CA3-CA1 excitatory synapses; experiment: S-eCB mobilization induced spike timing-dependent potentiation (tLTP) protocol, EPSP slope; assay type: cell-based, Sprague-Dawley rats; conditions: m-3M3FBS 30 μM; AβO-treated rat hippocampal slices; similar to level in DMSO-treated slices
Procedure: Soluble AβO was prepared according to a previous study (BMC Biol. 2020; 18(1):7). Specifically, Aβ1-42 (Aβ) and a scrambled form of Aβ as a control peptide were purchased in powder form. Aβ and scrambled Aβ were dissolved for monomerization in 1,1,1,3,3,3-hexafluoro-2-propanol (HFIP, Sigma Aldrich, USA) at a final concentration of 1 mM, and the solution was incubated for 90 minutes. After the HFIP was evaporated, the remaining thin and clear film of Aβ or scrambled Aβ was dissolved in dimethyl sulfoxide (DMSO, Sigma Aldrich, USA) to prepare 5 mM Aβ or scrambled Aβ stocks, which were aliquoted and frozen at −20° C. Aβ or scrambled Aβ stocks were thawed and diluted to 100 μM in artificial cerebrospinal fluid (ACSF). Thereafter, Aβ or scrambled Aβ stocks were incubated for oligomerization for 18 hours. The final AβO or scrambled AβO stock solution was diluted to a final concentration of 200 nM in 31.2 ml of ACSF, and rat hippocampal slices were treated with the stock solution for 20 minutes in a recovery chamber before measurement of brain signals. In control experiments for normal brain conditions using a vehicle, rat hippocampal slices were treated with 0.004% DMSO in ACSF.
The brains of SD rats were isolated following decapitation under isoflurane-induced anesthesia and transferred into ice-cold ACSF containing 126 mM NaCl, […], 1.25 mM NaH2PO4, 2 mM MgSO4, 2 mM CaCl2), 25 mM NaHCO3, and 10 mM glucose (pH 7.2 to 7.4). The ACSF was continuously oxygenated with 95% O2/5% CO2. Horizontal hippocampal slices (350 μm thickness) were obtained using a vibratome (VT1000S, Leica Biosystems, Germany) and immediately incubated at room temperature in a submerged chamber perfused with oxygenated ACSF for at least 1 hour.

[2] = tested on: PLCβ1; experiment: Western blot of hippocampal PLCβ1 after stereotaxic drug injection in 5XFAD mice; assay type: in vivo; conditions: m-3M3FBS (50 μM, 0.5 μl per site) injected into dorsal and ventral bilateral hippocampi; three days after injection
Excerpt: To test the acute effect of AβO on hippocampal S-eCB mobilization, hippocampal slices from Sprague-Dawley rats (SD, 2 to 3 weeks old, […] Biolink, Co., Ltd., Korea) were used. Male and female rats were used in all in vitro experiments. To test the chronic effect of AβO on hippocampus-dependent memory impairments caused by amyloidosis, the 5XFAD mouse model (6 to 7 months old, #34840-JAX, Jackson Laboratory, USA), which is a mouse model of Alzheimer's disease that mimics AβO depositions, was used. C57BL/6 mice (6 to 7 months old, KOATECH, Korea) were used as wild type (WT) control mice for 5XFAD mice. Male 5XFAD and C57BL/6 mice were used for all in vivo behavioral experiments. The 5XFAD mouse genotypes were identified by polymerase chain reaction (PCR) using DNA extracted from the tails of the mice. All animal-related procedures followed the guidelines of the Institutional Animal Care and Use Committee of Korea University (guidelines for SD rats: KUIACUC-2017-103, guidelines for C57BL/6 and 5XFAD mice: KUIACUC-2019-0068). […] Immunoreactivity was confirmed with enhanced chemiluminescence (Bio-Rad, USA) using a Fluorchem E system (ProteinSimple, USA) and analyzed with ImageJ software. […]

Cc1cc(C)c(S(=O)(=O)Nc2cccc(C(F)(F)F)c2)c(C)c1 [m-3M3FBS]
tLTP in AβO-treated slices [1]: completely recovered
hippocampal PLCβ1 protein levels in 5XFAD mice [2]: completely recovered
